The record followed here is patent publication US8937183B2, “Detection of hydrogen peroxide” (Promega Corporation, priority 2011, dated 2015).

Molecules are shown by their SMILES.

This assay is described as follows: Generation of bioluminescence from luciferin borates upon treatment with hydrogen peroxide (luciferase light reaction). It is filed as biochemical. Here is the method: In this example, luciferin borates were incubated with hydrogen peroxide, and luciferin generation was measured using a light reaction catalyzed by luciferase. An increase in light output (bioluminescence) as a result of treatment of the luciferin borates with hydrogen peroxide indicates generation of luciferin as a result of the reaction with hydrogen peroxide.
1 M phosphate solutions (either 6.8 g of KH2PO4 (Fisher) or 11.4 g of K2HPO4 (Sigma) were dissolved in Nanopure water to 1 M) were diluted 1:5 with Nanopure water to produce 200 mM phosphate solutions. 200 mM phosphate buffers at pH 6.87, 7.41, 7.73, 8.04, and 9.18 were prepared. 4 mg/ml solutions of PBI 3048, 4013, 4424 and 4425 (FIG. 1) in DMSO (Fluka 41641) were made from solid powder.
Into two 96-well white, solid bottom luminometer plates (Promega Z3291) (labeled “A” and “B”), 50 μl of 200 mM phosphate buffer pH 6.87 was added to wells A1-H2; 50 μl of 200 mM phosphate pH 7.41 was added to wells A3-H4; 50 μl of 200 mM phosphate buffer pH 7.73 was added to wells A5-H6; 50 μl of 200 mM phosphate buffer pH 8.04 was added to wells A7-H8; and 50 μl of 200 mM phosphate buffer pH 9.18 was added to wells A9-H10.
50 μl of 4 mg/ml PBI 4013 in DMSO was diluted to 1.25 ml with Nanopure water, and 25 μl added to wells A1-D10 of plate A. 50 μl of 4 mg/ml PBI 4424 was diluted to 1.25 ml with Nanopure water, and 25 μl added to E1-H10 of plate A. 50 μl of 4 mg/ml PBI 3048 was diluted to 1.25 ml with Nanopure water, and 25 μl added to A1-D10 of plate B. 50 μl of 4 mg/ml PBI 4425 was diluted to 1.25 ml with Nanopure water, and 25 μl added to E1-H10 of plate B. 25 μl of Nanopure water was added to rows A and E of both plates. 17 μl of Nanopure water was added to rows B and F of both plates; and 8 μl of Nanopure water was added to rows C and G of both plates
A hydrogen peroxide solution (30% hydrogen peroxide, Sigma H1009-5 ml) was diluted to 60 μM hydrogen peroxide with Nanopure water, and 25 μl of the 60 μM hydrogen peroxide was added to rows D and H of both plates; 17 μl of […] hydrogen peroxide was added to rows C and G of both plates; and 8 μl of […] hydrogen peroxide was added to rows B and F of both plates. Both plates A and B were then gently mixed for 70 minutes.
A bottle of Reconstitution Buffer with Esterase (Promega V144B) was thawed and used to reconstitute a Luciferin Detection Reagent (Promega V859B) to create a reconstituted Luciferin Detection Reagent (“LDR”). 15 ml of 1 M HEPES buffer, pH 7.5 was mixed with 25 ml of the LDR, and 80 μl added to wells A1-H10 of two new luminometer plates (“R1” and “R2”).
Following incubation, 20 μl of the contents of wells A1-H10 of plate A was transferred to the same wells in plate R1, and 20 μl of A1-H10 of plate B was transferred to the same wells in plate R2. Plate R1 and R2 were then incubated at room temperature for 15 minutes, and bioluminescence was measured with a GloMax® luminometer (Promega Corp).
Bioluminescence from duplicate wells was averaged, and the average relative light units (RLUs) from samples containing peroxide were compared to those from the samples not containing peroxide incubated at the same pH (Table 1).

With `O=C(O)C1CSC(c2nc3ccc(OCc4ccc(B(O)O)cc4)cc3s2)=N1` (stereo not drawn) [PBI 3048], the “average relative light units (bioluminescence)” value (“average relative light units” below) was 392,535 RLU (H2O2 0 μM, phosphate buffer pH 6.87, 70 minutes); 418,478 RLU (H2O2 0 μM, phosphate buffer pH 7.41, 70 minutes); 470,830 RLU (H2O2 0 μM, phosphate buffer pH 7.73, 70 minutes); 561,030 RLU (H2O2 0 μM, phosphate buffer pH 8.04, 70 minutes); 819,156 RLU (H2O2 0 μM, phosphate buffer pH 9.18, 70 minutes); 521,375 RLU (H2O2 5 μM, phosphate buffer pH 6.87, 70 minutes). Moreover, the “average relative light units” value (H2O2 5 μM, phosphate buffer pH 7.41, 70 minutes) is 794,181 RLU; the “average relative light units” value (H2O2 5 μM, phosphate buffer pH 7.73, 70 minutes) is reported as 1,200,842 RLU; the “average relative light units” value (H2O2 5 μM, phosphate buffer pH 8.04, 70 minutes) is 1,831,013 RLU; the “average relative light units” value (H2O2 5 μM, phosphate buffer pH 9.18, 70 minutes) is 3,834,248 RLU; the “average relative light units” value (H2O2 10 μM, phosphate buffer pH 6.87, 70 minutes) is recorded as 717,216 RLU; the “average relative light units” value (H2O2 10 μM, phosphate buffer pH 7.41, 70 minutes) is given as 1,302,514 RLU. Further, the “average relative light units” value by setting is: (H2O2 10 μM, phosphate buffer pH 7.73, 70 minutes) 2,057,780 RLU; (H2O2 10 μM, phosphate buffer pH 8.04, 70 minutes) 3,137,287 RLU; (H2O2 10 μM, phosphate buffer pH 9.18, 70 minutes) 6,426,397 RLU; (H2O2 15 μM, phosphate buffer pH 6.87, 70 minutes) 833,785 RLU; (H2O2 15 μM, phosphate buffer pH 7.41, 70 minutes) 1,709,044 RLU; (H2O2 15 μM, phosphate buffer pH 7.73, 70 minutes) 2,713,251 RLU. Besides, the “average relative light units” value reads like this: (H2O2 15 μM, phosphate buffer pH 8.04, 70 minutes) 4,193,451 RLU; (H2O2 15 μM, phosphate buffer pH 9.18, 70 minutes) 7,447,757 RLU. For the same compound, the “light signal increase upon addition of hydrogen peroxide (in words)” value (all pH values 6.87 to 9.18) is given as “increased strongly”.
